# Results taken from US20220265817A1, “THERAPEUTIC COMPOSITIONS AND METHODS FOR TREATING HEPATITIS B” (priority 2017, published 2022).
# Tested on: HBV cccDNA-dependent precore RNA in DESHAe82 cells
# Experiment: DESHAe82 / DE19 cell culture system, cccDNA-derived precore RNA by qRT-PCR, MacSynergy II
# Assay type: cell-based, Hepatitis B virus
# Settings: ETV μM: 0.01, 0.0032, 0.001, 0.0003, 0.0001, 3E−05, 0
# Procedure: In vitro combination studies were conducted using a modification of the assay system described in Cai et al (Antimicrobial Agents Chemotherapy, 2012. Vol 56(8):4277-88). A previously developed HepDE19 cell culture system (Guo et al. J. Virology (2007) 81(22): 12472-12484) supports HBV DNA replication and cccDNA formation in a tetracycline (Tet)-regulated manner, and produces a detectable reporter molecule which is dependent upon the production and maintenance of cccDNA.
# In the HepDE19 cell culture system, the reporters are the precore RNA and its cognate protein product, the secreted HBV “e antigen” (HBeAg). In HepDE19 cells, precore RNA and HBeAg are only produced from the cccDNA circular template, because the ORF of HBeAg and its 5′ RNA leader are separated between the opposite ends of the integrated viral genome, and only become contiguous with the formation of cccDNA. Although an assay based on the HepDE19 cell culture system is effective for determining activity, the results of high throughput screening may be complicated because the HBeAg ELISA cross reacts with a viral HBeAg homologue, which is the core antigen (HBcAg) expressed largely in a cccDNA-independent fashion in HepDE19 cells. To overcome this complication, an alternative cell culture system (designated herein as DESHAe82 cell culture system and described in PCT/EP/2015/06838) has been developed which includes an in-frame HA epitope tag in the N-terminal coding sequence of HBeAg in the transgene of DESHAe82 cells, without disrupting any cis-element critical for HBV replication, cccDNA transcription, and HBeAg secretion.
# A chemiluminescence ELISA assay (CLIA) for the detection of HA-tagged HBeAg with HA antibody serving as capture antibody and […] has been developed, eliminating the contaminating signal from HBcAg. […] In addition, a protocol for quantitative reverse transcription and polymerase chain reaction (qRT-PCR) that is specific for detection of precore RNA in either DE19 or DESHAe82 cells was developed and is also used for the detection of the cccDNA-dependent mRNA (precore RNA) that is translated to produce HBeAg or HA-HBeAg.
# To test the compound combinations, DESHAe82 or DE19 cells (as indicated in examples) were plated in 96 well tissue-culture treated microtiter plates in DMEM/F12 medium supplemented with 10% fetal bovine serum+1% penicillin-streptomycin with Tet, and incubated in a humidified incubator at 37° C. and 5% CO2 overnight. […] The two inhibitors were tested both singly as well as in combinations in a checkerboard fashion such that each test concentration of inhibitor A was combined with each test concentration of inhibitor B to determine their combination effects on inhibition of cccDNA formation and expression. Untreated negative control samples (0.5% DMSO or media only) were included on each plate in multiple wells. Following a 9 day-incubation, media was removed and cells were subjected to RNA extraction to measure the cccDNA-dependent precore mRNA level. Total cellular RNAs were extracted using a 96-well format total RNA isolation kit ([…]-NAGEL, Cat. 740466.4) by following the instruction of manufacturer (vacuum manifold processing, two more extra washes of Buffer RA4). RNA samples were eluted in RNAase-free water. Quantitative real-time RT-PCR was performed with a Roche LightCycler480 and RNA Master Hydrolysis probe (Catalog number 04991885001, Roche) using primers and conditions for specific detection of cccDNA-dependent precore RNA. GAPDH mRNA levels were also detected by standard methods and used to normalize the precore RNA levels.
smiles,measurement,setting,value
CC[C@@H](C)NS(=O)(=O)c1ccc(F)c(C(=O)Nc2ccc(F)c(F)c2)c1 [Compound 3],Average percent inhibition versus negative control (precore RNA),Compound 3 0.032 μM,−26.280%
same,Average percent inhibition versus negative control (precore RNA),Compound 3 0.100 μM,−86.920%
same,Average percent inhibition versus negative control (precore RNA),Compound 3 0.317 μM,36.240%
same,Average percent inhibition versus negative control (precore RNA),Compound 3 1.001 μM,67.120%
same,Average percent inhibition versus negative control (precore RNA),Compound 3 3.165 μM,90.600%
same,Average percent inhibition versus negative control (precore RNA),Compound 3 10 μM,84.340%
